≈ marks a conversion by molar mass, not a printed value.
How the values were obtained:
Staphylococcus aureus [1] = test: Antibacterial activity against Staphylococcus aureus ATCC 25923 after 24 hrs by microbroth dilution method; type: functional; conditions: ATCC 25923, 24 h
Staphylococcus aureus [2] = test: Antibacterial activity against methicillin-resistant Staphylococcus aureus N315 after 24 hrs by microbroth dilution method; type: functional; conditions: N315, 24 h
Pichia norvegensis = test: Antifungal activity against Candida mycoderma ATCC 9888 after 24 hrs by microbroth dilution method; type: functional; conditions: ATCC 9888, 24 h
Salmonella enterica = test: Antibacterial activity against Salmonella enterica ATCC 14028 after 24 hrs by microbroth dilution method; type: functional; conditions: ATCC 14028, 24 h
Aspergillus flavus = test: Antifungal activity against Aspergillus flavus ATCC 204304 after 24 hrs by microbroth dilution method; type: functional; conditions: ATCC 204304, 24 h
Candida albicans = test: Antifungal activity against Candida albicans ATCC 10231 after 24 hrs by microbroth dilution method; type: functional; conditions: ATCC 10231, 24 h
[3] = Ionization constant, pKa of the compound by UV spectroscopic analysis; type: physicochemical
Micrococcus luteus = test: Antibacterial activity against Micrococcus luteus ATCC 4698 after 24 hrs by microbroth dilution method; type: functional; conditions: NCTC 2665, 24 h
Cyberlindnera jadinii = test: Antifungal activity against Candida utilis ATCC 9950 after 24 hrs by microbroth dilution method; type: functional; conditions: Williopsis jadinii, ATCC 9950, 24 h
Saccharomyces cerevisiae = test: Antifungal activity against Saccharomyces cerevisiae ATCC 9763 after 24 hrs by microbroth dilution method; type: functional; conditions: ATCC 9763, 24 h
Pseudomonas aeruginosa = test: Antibacterial activity against Pseudomonas aeruginosa ATCC 27853 after 24 hrs by microbroth dilution method; type: functional; conditions: ATCC 27853, 24 h
Escherichia coli = test: Antibacterial activity against Escherichia coli JM109 after 24 hrs by microbroth dilution method; type: functional; conditions: JM109, 24 h
Bacillus spizizenii = test: Antibacterial activity against Bacillus subtilis ATCC 6633 after 24 hrs by microbroth dilution method; type: functional; conditions: ATCC 6633, 24 h
Bacillus = test: Antibacterial activity against Bacillus proteus ATCC 13315 after 24 hrs by microbroth dilution method; type: functional; conditions: ATCC 13315, 24 h

| SMILES | MIC (Staphylococcus aureus [1]) [µg/mL] | MIC (Staphylococcus aureus [2]) [µg/mL] | MIC (Pichia norvegensis) [µg/mL] | MIC (Salmonella enterica) [µg/mL] | MIC (Aspergillus flavus) [µg/mL] | MIC (Candida albicans) [µg/mL] | pKa [3] | MIC (Micrococcus luteus) [µg/mL] | MIC (Cyberlindnera jadinii) [µg/mL] | MIC (Saccharomyces cerevisiae) [µg/mL] | MIC (Pseudomonas aeruginosa) [µg/mL] | MIC (Escherichia coli) [µg/mL] | MIC (Bacillus spizizenii) [µg/mL] | MIC (Bacillus) [µg/mL] |
| --- | --- | --- | --- | --- | --- | --- | --- | --- | --- | --- | --- | --- | --- | --- |
| Cc1nc(N2CCOCC2)c([N+](=O)[O-])n1CC(O)CNC1CCN(c2c(F)cc3c(=O)c(C(=O)O)cn(C4CC4)c3c2Cl)C1 (centres undefined) | 0.5 (≈ 0.789 µM) | 0.25 (≈ 0.394 µM) | 16 (≈ 25.2 µM) | 2 (≈ 3.15 µM) | 1 (≈ 1.58 µM) | 2 (≈ 3.15 µM) | 6.57 | 2 (≈ 3.15 µM) | 0.5 (≈ 0.789 µM) | 1 (≈ 1.58 µM) | 0.25 (≈ 0.394 µM) | 0.5 (≈ 0.789 µM) | 4 (≈ 6.31 µM) | 0.25 (≈ 0.394 µM) |
| Cc1nc(N2CCCC2)c([N+](=O)[O-])n1CC(O)CNC1CCN(c2c(F)cc3c(=O)c(C(=O)O)cn(C4CC4)c3c2Cl)C1 (centres undefined) | 1 (≈ 1.62 µM) | 1 (≈ 1.62 µM) | 4 (≈ 6.47 µM) | 8 (≈ 12.9 µM) | 2 (≈ 3.24 µM) | 2 (≈ 3.24 µM) | 6.54 | 4 (≈ 6.47 µM) | 1 (≈ 1.62 µM) | 4 (≈ 6.47 µM) | 0.5 (≈ 0.809 µM) | 8 (≈ 12.9 µM) | 1 (≈ 1.62 µM) | 0.5 (≈ 0.809 µM) |
| CCn1cc(C(=O)O)c(=O)c2cc(F)c(N3CCN(CC4CO4)CC3)cc21 (centres undefined) | 8 (≈ 21.3 µM) | 2 (≈ 5.33 µM) | 1 (≈ 2.66 µM) | 16 (≈ 42.6 µM) | 1 (≈ 2.66 µM) | 4 (≈ 10.7 µM) |  | 8 (≈ 21.3 µM) | 8 (≈ 21.3 µM) | 1 (≈ 2.66 µM) | 16 (≈ 42.6 µM) | 2 (≈ 5.33 µM) | 64 (≈ 170 µM) | 4 (≈ 10.7 µM) |
| Cc1nc(N2CCCCC2)c([N+](=O)[O-])n1CC(O)CNC1CCN(c2c(F)cc3c(=O)c(C(=O)O)cn(C4CC4)c3c2Cl)C1 (centres undefined) | 8 (≈ 12.7 µM) | 2 (≈ 3.16 µM) | 8 (≈ 12.7 µM) | 16 (≈ 25.3 µM) | 4 (≈ 6.33 µM) | 4 (≈ 6.33 µM) | 6.69 | 16 (≈ 25.3 µM) | 2 (≈ 3.16 µM) | 8 (≈ 12.7 µM) | 1 (≈ 1.58 µM) | 32 (≈ 50.6 µM) | 8 (≈ 12.7 µM) | 1 (≈ 1.58 µM) |
| CCn1cc(C(=O)O)c(=O)c2cc(F)c(N3CCN(CC(O)Cn4c(C)nc(N5CCCCC5)c4[N+](=O)[O-])CC3)cc21 (centres undefined) | 64 (≈ 109 µM) | 64 (≈ 109 µM) | 128 (≈ 219 µM) | 128 (≈ 219 µM) | 32 (≈ 54.6 µM) | 32 (≈ 54.6 µM) | 6.75 | 128 (≈ 219 µM) | 32 (≈ 54.6 µM) | 32 (≈ 54.6 µM) | 4 (≈ 6.83 µM) | 256 (≈ 437 µM) | 128 (≈ 219 µM) | 128 (≈ 219 µM) |
| Cc1nc(N2CCCC2)c([N+](=O)[O-])n1CC(O)CN1CCN(c2cc3c(cc2F)c(=O)c(C(=O)O)cn3C2CC2)CC1 (centres undefined) | 64 (≈ 110 µM) | 16 (≈ 27.4 µM) | 32 (≈ 54.8 µM) | 32 (≈ 54.8 µM) | 32 (≈ 54.8 µM) | 64 (≈ 110 µM) | 6.72 | 128 (≈ 219 µM) | 16 (≈ 27.4 µM) | 32 (≈ 54.8 µM) | 2 (≈ 3.43 µM) | 64 (≈ 110 µM) | 16 (≈ 27.4 µM) | 32 (≈ 54.8 µM) |
| Cc1nc(N2CCCCC2)c([N+](=O)[O-])n1CC(O)CN1CCN(c2cc3c(cc2F)c(=O)c(C(=O)O)cn3C2CC2)CC1 (centres undefined) | 128 (≈ 214 µM) | 32 (≈ 53.5 µM) | 64 (≈ 107 µM) | 64 (≈ 107 µM) | 8 (≈ 13.4 µM) | 64 (≈ 107 µM) | 6.9 | 64 (≈ 107 µM) | 32 (≈ 53.5 µM) | 64 (≈ 107 µM) | 1 (≈ 1.67 µM) | 128 (≈ 214 µM) | 32 (≈ 53.5 µM) | 128 (≈ 214 µM) |
| O=C(O)c1cn(C2CC2)c2cc(N3CCN(CC4CO4)CC3)c(F)cc2c1=O (centres undefined) | 4 (≈ 10.3 µM) | 1 (≈ 2.58 µM) | 1 (≈ 2.58 µM) | 2 (≈ 5.16 µM) | 1 (≈ 2.58 µM) | 2 (≈ 5.16 µM) |  | 2 (≈ 5.16 µM) | 2 (≈ 5.16 µM) | 1 (≈ 2.58 µM) | 2 (≈ 5.16 µM) | 1 (≈ 2.58 µM) | 8 (≈ 20.6 µM) | 4 (≈ 10.3 µM) |
| CCn1cc(C(=O)O)c(=O)c2cc(F)c(N3CCN(CC(O)Cn4c(C)nc(N5CCOCC5)c4[N+](=O)[O-])CC3)cc21 (centres undefined) | 32 (≈ 54.5 µM) | 4 (≈ 6.81 µM) | 64 (≈ 109 µM) | 32 (≈ 54.5 µM) | 16 (≈ 27.2 µM) | 16 (≈ 27.2 µM) | 6.64 | 8 (≈ 13.6 µM) | 16 (≈ 27.2 µM) | 16 (≈ 27.2 µM) | 2 (≈ 3.4 µM) | 64 (≈ 109 µM) | 16 (≈ 27.2 µM) | 32 (≈ 54.5 µM) |
